Reference: patent publication US20140031227A1, “HERBICIDAL COMPOSITIONS COMPRISING 4-AMINO-3-CHLORO-5-FLUORO-6-(4-CHLORO-2-FLUORO-3-METHOXYPHENYL) PYRIDINE-2-CARBOXYLIC ACID OR A DERIVATIVE THEREOF AND GLYPHOSATE OR GLUFOSINATE” (DOW AGROSCIENCES LLC, priority 2012, published 2014)
Counter-ions that a name gives are not always drawn.

What was measured:
Format in all cases: in vivo
[1] = test system: SCPMA (Schoenoplectus maritimus (L.) Lye or Bolboschoenus maritimus (L.) Palla, sea clubrush); assay: Example II in-water applied mixtures, transplanted paddy rice weeds, greenhouse: SCPMA; conditions: glyphosate IPA salt (Rodeo) alone
Procedure: Weed seeds or nutlets of the desired test plant species were planted in puddled soil (mud) prepared by mixing a shredded, non-sterilized mineral soil (50.5 percent silt, 25.5 percent clay, and 24 percent sand, with a pH of about 7.6 and an organic matter content of about 2.9 percent) and water at a 1:1 volumetric ratio. The prepared mud was dispensed in 365 mL aliquots into 16-ounce (oz.) non-perforated plastic pots with a surface area of 86.59 square centimeters (cm^2) leaving a headspace of 3 centimeters (cm) in each pot. Mud was allowed to dry overnight prior to planting or transplanting. Rice seeds were planted in Sun Gro MetroMix® 306 planting mixture, which typically has a pH of 6.0 to 6.8 and an organic matter content of about 30 percent, in plastic plug trays. Seedlings at the second or third leaf stage of growth were transplanted into 840 mL of mud contained in 32-oz. non-perforated plastic pots with a surface area of 86.59 cm^2 4 days prior to herbicide application. The paddy was created by filling the headspace of the pots with 2.5 to 3 cm of water. […] The plants were grown for 4-22 days in a greenhouse with an approximate 14 hr photoperiod which was maintained at about 29′C during the day and 26° C. during the night. Nutrients were added as Osmocote® (19:6:12, N:P:K+minor nutrients) at 2 g per 16-oz. pot and 4 g per 32-oz. pot. Water was added on a regular basis to maintain the paddy flood, and supplemental lighting was provided with overhead metal halide 1000-Watt lamps as necessary. The plants were employed for testing when they reached the first through fourth true leaf stage.
(§1) Treatments consisted of the acid or esters of 4-amino-3-chloro-5-fluoro-6-(4-chloro-2-fluoro-3-methoxy-phenyl)pyridine-2-carboxylic acid (compound A) each formulated as an SC (suspension concentrate) and various herbicidal components alone and in combination. Forms of compound A were applied on an acid equivalent basis.
For formulated compounds, a measured amount was placed in an individual 100 or 200 mL glass vial and was dissolved in a volume of 1.25% (v/v) Agri-Dex® crop oil concentrate to obtain application solutions.
Applications were made by injecting with a pipetter appropriate amounts of the application solutions, individually and sequentially, into the aqueous layer of the paddy. Control plants were treated in the same manner with the solvent blank. Applications were made so that all treated plant material received the same concentrations of acetone and crop oil concentrate.
(§2) The treated plants and control plants were placed in a greenhouse as described above and water was added as needed to maintain a paddy flood. After approximately 3 weeks the condition of the test plants as compared with that of the untreated plants was determined visually and scored on a scale of 0 to 100 percent where 0 corresponds to no injury or growth inhibition and 100 corresponds to complete kill.
(§3) Colby's equation was used to determine the herbicidal effects expected from the mixtures (Colby, S. R. 1967. Calculation of the synergistic and antagonistic response of herbicide combinations. Weeds 15:20-22.).

[2] = test system: ECHCG (Echinochloa crusgalli (L.) Beauv., barnyardgrass); assay: Example I postemergence foliar-applied mixtures, direct seeded rice weeds, greenhouse: ECHCG; conditions: for Visual Weed Control (%) - 21 DAA ECHCG Obs: glyphosate IPA salt (Glyphomax) alone
Procedure: (§4) Seeds or nutlets of the desired test plant species were planted in a soil matrix prepared by mixing a loam or sandy loam soil (e.g., 28.6 percent silt, 18.8 percent clay, and 52.6 percent sand, with a pH of about 5.8 and an organic matter content of about 1.8 percent) and calcareous grit in an 80 to 20 ratio. The soil matrix was contained in plastic pots with a volume of 1 quart and a surface area of 83.6 square centimeters (cm^2). […] The plants were grown for 8-22 days in a greenhouse with an approximate 14 hr photoperiod which was maintained at about 29° C. during the day and 26° C. during the night. Nutrients (Peters Excel® 15-5-15 5-Ca 2-Mg and iron chelate) were applied in the irrigation solution as needed and water was added on a regular basis. Supplemental lighting was provided with overhead metal halide 1000-Watt lamps as necessary. The plants were employed for testing when they reached the first through fourth true leaf stage.
as §1, with “(Compound A),” for “(compound A)”, “concentrate),” for “concentrate)”
(§5) For treatments comprised of formulated compounds, measured amounts of compounds were placed individually in 25 mL glass vials and diluted in a volume of 1.25% (v/v) Agri-Dex® crop oil concentrated to obtain 12× stock solutions. […] Application solutions were prepared by adding an appropriate amount of each stock solution (e.g., 1 mL) and diluted to the appropriate final concentrations with the addition of 10 mL of an aqueous mixture of 1.25% (v/v) crop oil concentrate so that the final spray solutions contained 1.25+/−0.05% (v/v) crop oil concentrate.
(§6) All stock solutions and applications solutions were visually inspected for compound compatibility prior to application. Spray solutions were applied to the plant material with an overhead Mandel track sprayer equipped with a 8002E nozzles calibrated to deliver 187 L/ha over an application area of 0.503 m^2 at a spray height of 18 to 20 inches (46 to 50 cm) above average plant canopy height. Control plants were sprayed in the same manner with the solvent blank.
as §2, with “watered by sub-irrigation” for “water was added as needed”, “prevent wash-off of the test compounds.” for “maintain a paddy flood.”, “weeks,” for “weeks”
as §3

[3] = test system: LEFCH (Leptochloa chinensis (L.) Nees, Chinese sprangletop); assay: Example I postemergence foliar-applied mixtures, direct seeded rice weeds, greenhouse: LEFCH
Procedure: as §4
as §1, with “(Compound A),” for “(compound A)”, “concentrate),” for “concentrate)”
as §5, §6
as §2, with “watered by sub-irrigation” for “water was added as needed”, “prevent wash-off of the test compounds.” for “maintain a paddy flood.”, “weeks,” for “weeks”
as §3

[4] = test system: IPOHE (Ipomoea hederacea Jacq., ivyleaf morningglory); assay: Example I postemergence foliar-applied mixtures, direct seeded rice weeds, greenhouse: IPOHE; conditions: glyphosate IPA salt (Rodeo) alone
Procedure: as §4
as §1, with “(Compound A),” for “(compound A)”, “concentrate),” for “concentrate)”
as §5, §6
as §2, with “watered by sub-irrigation” for “water was added as needed”, “prevent wash-off of the test compounds.” for “maintain a paddy flood.”, “weeks,” for “weeks”
as §3

[5] = test system: DIGSA (Digitaria sanguinalis (L.) Scop., large crabgrass); assay: Example I postemergence foliar-applied mixtures, direct seeded rice weeds, greenhouse: DIGSA; conditions: glyphosate IPA salt (Durango) alone, 377 gae/ha
Procedure: as §4
as §1, with “(Compound A),” for “(compound A)”, “concentrate),” for “concentrate)”
as §5, §6
as §2, with “watered by sub-irrigation” for “water was added as needed”, “prevent wash-off of the test compounds.” for “maintain a paddy flood.”, “weeks,” for “weeks”
as §3

[6] = test system: ECHCO (Echinochloa colona (L.) Link, junglerice); assay: Example I postemergence foliar-applied mixtures, direct seeded rice weeds, greenhouse: ECHCO
Procedure: as §4
as §1, with “(Compound A),” for “(compound A)”, “concentrate),” for “concentrate)”
as §5, §6
as §2, with “watered by sub-irrigation” for “water was added as needed”, “prevent wash-off of the test compounds.” for “maintain a paddy flood.”, “weeks,” for “weeks”
as §3

[7] = glyphosate IPA salt (Durango) alone, 377 gae/ha
[8] = glyphosate IPA salt (Glyphomax) alone, 124.5 gae/ha
[9] = glyphosate IPA salt (Glyphomax) alone, 249 gae/ha
[10] = glyphosate IPA salt (Rodeo) alone, 105 gae/ha
[11] = glyphosate IPA salt (Rodeo) alone, 210 gae/ha

O=C(O)CNCP(=O)(O)O [Glyphosate isopropylamine salt, N-(phosphonomethyl)glycine, reference compound]
Visual Weed Control (%) - 21 DAA SCPMA Obs ([1]; 210 gae/ha): 0%
Visual Weed Control (%) - 21 DAA SCPMA Obs ([1]; 420 gae/ha): 0%
Visual Weed Control (%) - 20 DAA ECHCG Obs [2, 7]: 38%
Visual Weed Control (%) - 21 DAA ECHCG Obs ([2]; 124.5 gae/ha): 0%
Visual Weed Control (%) - 21 DAA ECHCG Obs ([2]; 249 gae/ha): 0%
Visual Weed Control (%) - 20 DAA LEFCH Obs [3, 7]: 88%
Visual Weed Control (%) - 21 DAA LEFCH Obs [3, 8]: 0%
Visual Weed Control (%) - 21 DAA LEFCH Obs [3, 9]: 45%
Visual Weed Control (%) - 21 DAA LEFCH Obs [3, 10]: 25%
Visual Weed Control (%) - 21 DAA LEFCH Obs [3, 11]: 75%
Visual Weed Control (%) - 21 DAA LEFCH Obs ([3]; glyphosate IPA salt (Rodeo) alone, 420 gae/ha): 90%
Visual Weed Control (%) - 21 DAA IPOHE Obs ([4]; 105 gae/ha): 15%
Visual Weed Control (%) - 21 DAA IPOHE Obs ([4]; 210 gae/ha): 25%
Visual Weed Control (%) - 21 DAA IPOHE Obs ([4]; 420 gae/ha): 55%
Visual Weed Control (%) - 20 DAA DIGSA Obs [5]: 10%
Visual Weed Control (%) - 21 DAA ECHCO Obs [6, 8]: 10%
Visual Weed Control (%) - 21 DAA ECHCO Obs [6, 9]: 20%
Visual Weed Control (%) - 21 DAA ECHCO Obs [6, 10]: 0%
Visual Weed Control (%) - 21 DAA ECHCO Obs [6, 11]: 0%
